# In patent US11958813B2, “Uracil compound containing carboxylate fragment, preparation method therefor, and herbicidal composition and use thereof” (JIANGSU FLAG CHEMICAL INDUSTRY CO., LTD., priority 2021, dated 2024):
# Key:
# Experiment in all cases: Greenhouse herbicidal activity test, post-emergence
# Type in all cases: in vivo
# Polypogon fugax = conditions: determined 21 days later; for inhibition at 7.5 g/ha / inhibition at 15 g/ha: Polypogon fugax, 504 h, read-out: fresh weight inhibition rate, Polypogon fugax
# Excerpt: (§1) A herbicidal activity test method for the compounds of the present invention was as follows:
# (§2) Post-emergence: an appropriate quantity of seeds of gramineous weeds (Echinochloa crusgalli, Eleusine indica, Digitaria sanguinalis, Alopecurus japonicus, Beckmannia syzigachne, Leptochloa chinensis, Polypogon fugax, Alopecurus aequalis, Lolium multiflorum, and Poa annua), broad-leaved weeds (Eclipta prostrata, Amaranthus retroflexus, Brassica juncea, Malachium aquaticum, Conyza canadensis, and Sesbania cannabina), and Cyperus iria were sown in plastic pots having a diameter of 7 cm and holes at the bottom and filled with nutrient soil (sandy soil, pH 6.1, organic matter 1%) respectively, the seeds were covered with an appropriate amount of soil after being sown, then the soil was wetted with water from the bottom, the seeds were cultured in a constant-temperature illuminated culture room until a 2-4 leaf stage, and stems and leaves underwent spray treatment. After the treatment, the test materials were placed in a laboratory and cultured in the constant-temperature illuminated culture room after the liquid was naturally dry in the shade, and results were determined 21 days later.
# (§3) According to the foregoing test method, a parallel experiment was carried out on herbicidal activities of some compounds of the general formula (I), the compound Butafenacil (compound 47 in the patent specification) specifically disclosed in U.S. Pat. No. 5,183,492A, and the compound CK (compound 1 in the patent specification) specifically disclosed in U.S. Pat. No. 5,183,492A, at application doses of 7.5 g a.i./ha and 15 g a.i./ha.
# Sesbania cannabina = conditions: determined 21 days later; for inhibition at 7.5 g/ha / inhibition at 15 g/ha: Sesbania cannabina, 504 h, read-out: fresh weight inhibition rate, Sesbania cannabina
# Excerpt: as §1, §2, §3
# Alopecurus japonicus = conditions: determined 21 days later; for inhibition at 7.5 g/ha / inhibition at 15 g/ha: Alopecurus japonicus, 504 h, read-out: fresh weight inhibition rate, Alopecurus japonicus
# Excerpt: as §1, §2, §3
Structure (SMILES),inhibition at 7.5 g/ha (Polypogon fugax; dose 7.5 g a.i./ha) [%],inhibition at 15 g/ha (Polypogon fugax; dose 15 g a.i./ha) [%],inhibition at 7.5 g/ha (Sesbania cannabina; dose 7.5 g a.i./ha) [%],inhibition at 15 g/ha (Sesbania cannabina; dose 15 g a.i./ha) [%],inhibition at 7.5 g/ha (Alopecurus japonicus; dose 7.5 g a.i./ha) [%],inhibition at 15 g/ha (Alopecurus japonicus; dose 15 g a.i./ha) [%],"fresh weight inhibition rate, Polypogon fugax (Polypogon fugax; dose 7.5 g a.i./ha)","fresh weight inhibition rate, Polypogon fugax (Polypogon fugax; dose 15 g a.i./ha)","fresh weight inhibition rate, Sesbania cannabina (Sesbania cannabina; dose 7.5 g a.i./ha)","fresh weight inhibition rate, Sesbania cannabina (Sesbania cannabina; dose 15 g a.i./ha)","fresh weight inhibition rate, Alopecurus japonicus (Alopecurus japonicus; dose 7.5 g a.i./ha)","fresh weight inhibition rate, Alopecurus japonicus (Alopecurus japonicus; dose 15 g a.i./ha)"
"C=CCOC(=O)C(C)(C)OC(=O)c1cc(-n2c(=O)cc(C(F)(F)F)n(C)c2=O)ccc1Cl [Butafenacil, reference compound]",< 55,55 to 70,55 to 70,70 to 85,< 55,< 55,,,,,,
"COC(=O)C(C)OC(=O)c1cc(-n2c(=O)cc(C(F)(F)F)n(C)c2=O)c(F)cc1Cl (stereo not drawn) [CK, reference compound]",< 55,55 to 70,55 to 70,70 to 85,< 55,55 to 70,,,,,,
COCCOC(=O)COC(=O)c1cc(-n2c(=O)cc(C(F)(F)F)n(C)c2=O)c(F)cc1Cl [Compound 3],,,,,,,B (B indicates that the inhibition rate was greater than or equal to 70% to less than 85%),A (A indicates that the inhibition rate was greater than or equal to 85% to 100%),A (A indicates that the inhibition rate was greater than or equal to 85% to 100%),A (A indicates that the inhibition rate was greater than or equal to 85% to 100%),B (B indicates that the inhibition rate was greater than or equal to 70% to less than 85%),A (A indicates that the inhibition rate was greater than or equal to 85% to 100%)
COCCOC(=O)C(C)(C)OC(=O)c1cc(-n2c(=O)cc(C(F)(F)F)n(C)c2=O)c(F)cc1Cl [Compound 207],,,,,,,A (A indicates that the inhibition rate was greater than or equal to 85% to 100%),A (A indicates that the inhibition rate was greater than or equal to 85% to 100%),A (A indicates that the inhibition rate was greater than or equal to 85% to 100%),A (A indicates that the inhibition rate was greater than or equal to 85% to 100%),A (A indicates that the inhibition rate was greater than or equal to 85% to 100%),A (A indicates that the inhibition rate was greater than or equal to 85% to 100%)
C=CCOCCOC(=O)C(C)(C)OC(=O)c1cc(-n2c(=O)cc(C(F)(F)F)n(C)c2=O)c(F)cc1Cl [Compound 214],,,,,,,A (A indicates that the inhibition rate was greater than or equal to 85% to 100%),A (A indicates that the inhibition rate was greater than or equal to 85% to 100%),A (A indicates that the inhibition rate was greater than or equal to 85% to 100%),A (A indicates that the inhibition rate was greater than or equal to 85% to 100%),A (A indicates that the inhibition rate was greater than or equal to 85% to 100%),A (A indicates that the inhibition rate was greater than or equal to 85% to 100%)
COCCOC(=O)C1(OC(=O)c2cc(-n3c(=O)cc(C(F)(F)F)n(C)c3=O)c(F)cc2Cl)CC1 [Compound 258],,,,,,,A (A indicates that the inhibition rate was greater than or equal to 85% to 100%),A (A indicates that the inhibition rate was greater than or equal to 85% to 100%),A (A indicates that the inhibition rate was greater than or equal to 85% to 100%),A (A indicates that the inhibition rate was greater than or equal to 85% to 100%),A (A indicates that the inhibition rate was greater than or equal to 85% to 100%),A (A indicates that the inhibition rate was greater than or equal to 85% to 100%)
